Legend:
[1] = in vitro; conditions: human
Procedure: The half maximal inhibition concentration (IC50) for each compound was determined by harvesting cells during the logarithmic growth period and then counting cell number using hemocytometer. […] Then, using a Biomek FX, test articles were serially diluted (10 mM top, 3× dilution intervals) along with a reference inhibitor (1 mM top, 3× dilution intervals) in acoustic grade Labcyte plate. Then, using an acoustic dispenser (Labcyte550), compounds were added as serially diluted to plate with cells: 90 nL of serially diluted compounds per well. 90 nL DMSO is added to control wells. Test plates were incubated for 72 h in the humidified incubator at 37° C. with 5% CO2. 25 μL of reconstituted Cell titer Glo reagent was added to each well. Each test plate was then incubated for 20 min at room temperature. Luminescence was then recorded using Synergy Neo2Multi-mode Reader.
In order to calculate intersect IC50, a dose-response curve was fitted using nonlinear regression model with a sigmoidal dose response.
The formula for calculating surviving rate is shown below, and the intersect IC50 was calculated according to the dose-response curve generated by the software:
The compounds of interest were assessed cell viability in the HL-60 acute promyelocytic leukemia cell line (ATCC® CCL-240). […] Culture medium were purchased from ATCC, USA.

[2] = SK-MEL-28 cell line toxicity (Cell titer Glo viability); type: cell-based; conditions: human, SK-MEL-28 melanoma cells, 72 h
Procedure: (§1) Culture medium were purchased from ATCC, USA.
(§2) 90 nL DMSO is added to control wells. […] Luminescence was then recorded using Synergy Neo2Multi-mode Reader.

[3] = tested on: SK-MEL-28 melanoma cell line; assay: as above; type: cell-based; conditions: Homo sapiens, SK-MEL-28, 72 h
Procedure: as §1, §2

[4] = PC3 cell line toxicity (Cell titer Glo viability); type: cell-based; conditions: human, PC3 prostate adenocarcinoma cells, 72 h
Procedure: as §2, §1

[5] = tested on: PC3 prostate adenocarcinoma cell line; assay: PC3 cell line toxicity (Cell titer Glo viability); type: cell-based; conditions: Homo sapiens, PC-3; PC3, 72 h
Procedure: as §2, §1

[6] = molecular target: T1, cannabinoid receptor 2 (CNR2) (Homo sapiens, UniProt P34972); assay: CB2 receptor agonist assay (cAMP Hunter eXpress, CNR2 CHO-K1); type: cell-based
T1 construct: host or cells: CHO-K1
T1 sequence (P34972 whole entry): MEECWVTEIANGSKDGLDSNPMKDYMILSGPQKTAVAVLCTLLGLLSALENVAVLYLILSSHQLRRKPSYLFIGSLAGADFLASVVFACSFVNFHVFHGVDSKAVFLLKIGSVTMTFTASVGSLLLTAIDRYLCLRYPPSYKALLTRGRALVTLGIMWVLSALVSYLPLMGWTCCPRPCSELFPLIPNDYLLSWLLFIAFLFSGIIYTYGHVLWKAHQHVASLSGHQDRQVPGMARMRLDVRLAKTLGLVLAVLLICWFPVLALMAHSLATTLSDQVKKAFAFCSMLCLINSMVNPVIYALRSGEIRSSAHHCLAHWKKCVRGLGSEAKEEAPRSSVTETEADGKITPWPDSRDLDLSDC
Procedure: (§3) The assays were performed in cAMP Hunter eXpress cells engineered to overexpress naturally Gi/Go-coupled wildtype cannabinoid receptor 1 (CNR1) or cannabinoid receptor 2 (CNR2) in CHO-K1 cell type. In these cells, CB1 and/or CB2 agonists inhibit production of intracellular cAMP in response to stimulation with Forskolin. cAMP levels are determined using luminogenic detection reagents provided with the Hunter eXpress cAMP detection kit.
(§4) • Assay ready CNR1 CHO-K1 cells were obtained from Eurofins/Discover X, cat #95-0071E2 • Assay ready CNR2 CHO-K1 cells were obtained from Eurofins/Discover X, cat #95-0183E2 • Hunter eXpress cAMP detection kit was also from Discover X. The kit includes all cAMP detection reagents, Forskolin, complete cell plating medium and cell assay buffer.
(§5) The Assay-Ready CNR1 CHO-K1 or CNR2 CHO-K1 cells were thawed and re-suspended in pre-warmed Assay Complete plating medium and inoculated into 96well plate at a density of 30,000 cells in 100 μL. The plates with cells were incubated for 24 h at 37° C. in 5% CO2. […] The cells were stimulated with the Forskolin/compound buffer for 30 min. […] The plate was read on Biotek Synergy Neo2 reader in luminescent mode. […] Relative luminescence units (RLUs) were plotted against compound concentration to determine apparent EC50 values of the agonist compounds.

[7] = molecular target: T2, cannabinoid receptor 1 (CNR1) (Homo sapiens, UniProt P21554); assay: CB1 receptor agonist assay (cAMP Hunter eXpress, CNR1 CHO-K1); type: cell-based; conditions: Forskolin-stimulated CNR1 CHO-K1
T2 construct: host or cells: CHO-K1
T2 sequence (P21554 whole entry): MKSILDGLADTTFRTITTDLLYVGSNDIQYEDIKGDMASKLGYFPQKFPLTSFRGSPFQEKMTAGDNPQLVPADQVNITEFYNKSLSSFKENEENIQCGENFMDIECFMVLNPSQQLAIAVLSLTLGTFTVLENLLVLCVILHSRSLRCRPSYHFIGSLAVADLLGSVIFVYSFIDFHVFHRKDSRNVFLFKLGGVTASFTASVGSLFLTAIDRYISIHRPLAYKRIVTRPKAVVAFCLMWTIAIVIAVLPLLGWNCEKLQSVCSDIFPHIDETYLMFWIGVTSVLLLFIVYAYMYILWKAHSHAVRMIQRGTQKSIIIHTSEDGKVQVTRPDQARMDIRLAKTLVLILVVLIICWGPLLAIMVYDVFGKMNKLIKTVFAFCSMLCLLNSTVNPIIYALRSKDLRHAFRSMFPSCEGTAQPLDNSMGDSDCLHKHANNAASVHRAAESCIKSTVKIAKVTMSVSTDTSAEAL
Procedure: as §3, §4, §5

Work on CN[C@@H]1C[C@H]2O[C@@](C)([C@@H]1OC)n1c3ccccc3c3c4c(c5c6ccccc6n2c5c31)C(=O)NC4 [Staurosporine, staurosporine, reference compound] yielded a viability at 0.00017 µM [1] of 98.3%, a viability at 0.00051 µM [1] of 96.5% and a viability at 0.0015 µM [1] of 98.3%. The viability at 0.0046 µM [1] was 90.4%, the viability at 0.014 µM [1] was 66.6% and the viability at 0.041 µM [1] was 36.3%. The viability at 0.12 µM [1] was 27.7%, the viability at 0.37 µM [1] was 18.7% and the viability at 1.1 µM [1] was 13.9%. It also gave a viability at 3.3 µM [1] of 11.7%, a viability at 10 µM [1] of 10.4% and a viability at 30 µM [1] of 9.6%. For the same molecule, the viability at 72 h, 0.00017 µM ([2]; SK-MEL-28, 0.00017 uM) was 96.2%, the viability at 72 h, 0.00051 µM ([2]; SK-MEL-28, 0.00051 uM) was 94.9% and the viability at 72 h, 0.0015 µM ([2]; SK-MEL-28, 0.0015 uM) was 96.7%. For the same molecule, the viability at 72 h, 0.0046 µM ([2]; SK-MEL-28, 0.0046 uM) was 94.1%, the viability at 72 h, 0.014 µM ([2]; SK-MEL-28, 0.014 uM) was 92.9% and the viability at 72 h, 0.041 µM ([2]; SK-MEL-28, 0.041 uM) was 70%. For the same molecule, the viability at 72 h, 0.12 µM ([2]; SK-MEL-28, 0.12 uM) was 53.9%, the viability at 72 h, 0.37 µM ([2]; SK-MEL-28, 0.37 uM) was 41.1% and the viability at 72 h, 1.1 µM ([2]; SK-MEL-28, 1.1 uM) was 33%. The viability at 72 h, 3.3 µM ([2]; SK-MEL-28, 3.3 uM) was 17.3%, the viability at 72 h, 10 µM ([2]; SK-MEL-28, 10 uM) was 8.55% and the viability at 72 h, 30 µM ([2]; SK-MEL-28, 30 uM) was 8.85%. The IC50 [3] was about 210 nM, the viability at 72 h, 0.00017 µM ([4]; PC3, 0.00017 uM) was 102% and the viability at 72 h, 0.00051 µM ([4]; PC3, 0.00051 uM) was 92.2%. It also gave a viability at 72 h, 0.0015 µM ([4]; PC3, 0.0015 uM) of 67.1%, a viability at 72 h, 0.0046 µM ([4]; PC3, 0.0046 uM) of 43.2% and a viability at 72 h, 0.014 µM ([4]; PC3, 0.014 uM) of 34.5%. For the same molecule, the viability at 72 h, 0.041 µM ([4]; PC3, 0.041 uM) was 12.7%, the viability at 72 h, 0.12 µM ([4]; PC3, 0.12 uM) was 10.3% and the viability at 72 h, 0.37 µM ([4]; PC3, 0.37 uM) was 9.5%. For the same molecule, the viability at 72 h, 1.1 µM ([4]; PC3, 1.1 uM) was 8.4%, the viability at 72 h, 3.3 µM ([4]; PC3, 3.3 uM) was 8.1% and the viability at 72 h, 10 µM ([4]; PC3, 10 uM) was 6.8%. The viability at 72 h, 30 µM ([4]; PC3, 30 uM) was 7.1% and the IC50 [5] was about 4 nM.
For CCCCCc1cc(O)c2c(c1)OC(C)(C)C1CCC(CO)=CC21 (centres unmarked) [11-hydroxy-THC], the EC50 ([6]; agonist, cAMP, Forskolin-stimulated CNR2 CHO-K1) was 51 nM, the “Selectivity for CB2 over CB1” value ([6]; ratio of EC50 values) was 0.02 fold and the EC50 [7] was 1 nM.
